The results in this text go back to publication PMC8246065 (The EMBO Journal, 2021).

Where two headings read alike, the source gives them in different places.

The target of one assay is T1, NOD1 (Homo sapiens, UniProt Q9Y239).
T1 sequence (Q9Y239 1-953): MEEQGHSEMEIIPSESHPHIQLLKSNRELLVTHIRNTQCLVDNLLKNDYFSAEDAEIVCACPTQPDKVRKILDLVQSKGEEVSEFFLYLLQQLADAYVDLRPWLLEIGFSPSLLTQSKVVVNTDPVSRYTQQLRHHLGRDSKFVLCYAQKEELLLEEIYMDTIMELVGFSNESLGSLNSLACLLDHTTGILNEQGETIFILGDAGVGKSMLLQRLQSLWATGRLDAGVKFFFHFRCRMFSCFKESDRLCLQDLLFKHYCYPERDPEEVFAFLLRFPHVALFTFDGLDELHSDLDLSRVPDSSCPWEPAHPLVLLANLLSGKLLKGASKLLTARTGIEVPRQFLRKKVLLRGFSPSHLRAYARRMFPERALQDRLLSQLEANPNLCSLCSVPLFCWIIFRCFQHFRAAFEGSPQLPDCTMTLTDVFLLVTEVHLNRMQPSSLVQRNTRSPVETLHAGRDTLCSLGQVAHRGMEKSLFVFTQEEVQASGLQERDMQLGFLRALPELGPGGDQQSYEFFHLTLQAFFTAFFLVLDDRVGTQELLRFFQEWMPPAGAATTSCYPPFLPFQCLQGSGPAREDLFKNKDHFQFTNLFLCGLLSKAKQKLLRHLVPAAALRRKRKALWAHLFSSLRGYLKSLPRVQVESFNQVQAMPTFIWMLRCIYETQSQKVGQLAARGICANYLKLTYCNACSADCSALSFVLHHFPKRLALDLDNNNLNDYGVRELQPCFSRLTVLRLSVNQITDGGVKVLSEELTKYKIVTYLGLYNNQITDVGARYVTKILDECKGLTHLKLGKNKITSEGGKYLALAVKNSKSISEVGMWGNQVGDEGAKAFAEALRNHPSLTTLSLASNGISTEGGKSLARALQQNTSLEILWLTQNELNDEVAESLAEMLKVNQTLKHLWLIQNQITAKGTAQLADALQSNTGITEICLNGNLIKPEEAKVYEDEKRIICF
The assay can be described thus: Microscale thermophoresis (MST) binding to purified NOD1-GFP. How it is done: The lysates were incubated with 2 ml GFP‐Trap agarose at 4°C for 4 h. The agarose was collected with Poly‐Prep columns by gravity flow. […] To remove heat shock proteins, columns were further washed with 50 ml wash buffer III (50 mM Tris–HCl, pH 7.5, 150 mM NaCl, 5 mM MgCl2+, 1 mM ATP). To elute the proteins, the agarose was mixed with 2 ml elution buffer (100 mM Glycine, pH 2.5) for 1 min and the eluted proteins were immediately neutralized with 0.2 ml of 1 M Tris, pH 10.5.

The subject of assay [1] is HEK293T WT and NOD1/2 KO NF‐κB reporter cells. The assay can be described thus: NF-κB luciferase assay and IL8 qRT-PCR in HEK293T WT and NOD1/2 KO cells. The assay is classed as cell-based, human. The conditions noted are these: cytosolic S1P, HEK293T WT vs NOD1/2 KO. How it is done: HEK293T WT and NOD1/2 KO NF‐κB reporter cells were seeded in 96‐well plates and stimulated with various stressors for 8 h. Then, cells were lysed in lysis buffer (Thermo Fisher Scientific) and luciferase activities were determined with firefly luciferase glow kit (Thermo Fisher Scientific) according to the manufacturer’s instructions. Luciferase activities were normalized to the amount of protein determined with Coomassie Plus kit (Thermo Fisher Scientific). Fold inductions were calculated against normalized luciferase activities of corresponding controls.
Total RNA was isolated with TRIzol reagent, as described by the manufacturer (Invitrogen). RNA (1 μg) was used to generate cDNA via the iScript cDNA Synthesis Kit (Bio‐Rad), and qRT–PCR was performed using Power SYBR Green Master Mix (Applied Biosystems) in a StepOne Plus thermocycler (Applied Biosystems). The average threshold cycle (Ct) of quadruplicate reactions was employed for all subsequent calculations using the ΔΔCt method. Gene expression was normalized to glyceraldehyde‐3‐phosphate dehydrogenase (GAPDH), and fold changes were calculated against corresponding controls. qRT–PCR data were representative of at least three independent experiments, with at least 2 technical replicates per experiment. […]

As to `CCCCCCCCCCCCC/C=C/[C@@H](O)[C@@H](N)COP(=O)(O)O` [S1P, sphingosine‐1‐phosphate], the Kd on NOD1 (Fig 6D, one representative experiment, read-out: Kd (NOD1/ligand)) is 2090 ± 770 nM; on NOD1 (Fig EV5B, purified NOD1, read-out: Kd (NOD1/ligand)), 2290 ± 1970 nM; at NOD1 (Kd value of S1P interacting with NOD1, as stated in text), around 2000 nM; at NOD1 (Kd(NOD1: S1P), Fig 7C, S1P alone), 1740 ± 430 nM; at NOD1 (Kd(NOD1 WT: S1P), Fig 7E), 2200 ± 510 nM. In assay [1], the “NF-κB activation and IL8 expression” value was “induced NOD1/2‐dependent NF‐κB activation and IL8 expression”.
